Experimental data as given in patent US20180228743A1, “COMPOUNDS AND METHODS OF PROMOTING MYELINATION” (Case Western Reserve University, priority 2016, published 2018).
Structures can show the parent of a compound that is named as a salt. Where two headings read alike, the source gives them in different places.

How the values were obtained:
Format in all cases: cell-based, mouse
EpiSC-derived OPCs [1] = assay: High-throughput screening of 3,000 bioactive small molecules for MBP+ oligodendrocyte formation from OPCs; conditions: 72 h; for % 0ligos: MBP+ oligodendrocytes; for fold induction at 2 µM: Mus musculus, read-out: fold-change in % MBP + oligodendrocytes
Source text: Plates were imaged on the Operetta High Content Imaging and Analysis system (PerkinElmer) and a set of 6 fields captured from each well resulting in an average of 1200 cells being scored per well. Analysis (PerkinElmer Harmony and Columbus software) began by identifying intact nuclei stained by DAPI; that is, those traced nuclei that were larger than 300 μm^2 in surface area. Each traced nucleus region was then expanded by 50% and cross-referenced with the […] (MBP) stain to identify oligodendrocyte nuclei, and from this the percentage of oligodendrocytes was calculated. In some experiments, the total process length of MBP+ oligodendrocytes was calculated as previously described.
EpiSC-derived OPCs were grown and expanded in poly-ornithine and laminin-coated flasks before harvesting for plating. Cells were dispensed in differentiation media supplemented with Noggin (R&D Systems; 100 ng/ml), Neurotrophin 3 (R&D Systems; 10 ng/ml), cAMP (Sigma; 50 μM), and IGF-1 (R&D Systems; 100 ng/ml)) using a Biotek EL406 Microplate Washer Dispenser (Biotek) equipped with 5 μL dispense cassette (Biotek), into poly-D-lysine/laminin (Sigma, L2020; 4 μg/ml)-coated sterile, 384-well, CellCarrier ultra plates (PerkinElmer), to a final density of 12,500 cells per well and allowed to attach for 45 min before addition of drug. A 3 mM stock of bioactive compound library in dimethylsulphoxide (DMSO) were prepared in an Abgene storage 384-well plate (ThermoFisher Scientific; AB1055). These were added to assay plates using a 50 nL solid pin tool attached to Janus automated workstation (Perkin Elmer), resulting in a final screening concentration of 2 μM. Cells were incubated at 37° C. for 1 hour and then T3 (Sigma; 40 ng/ml) was added to all wells except negative controls, to which FGF (20 ng/ml) was added instead. Negative controls and T3-alone were included in each assay plate. After incubation at 37° C. for 72 h, cells were fixed, washed and stained similar to 96-well OPC assay protocol, although all the washing steps were performed using a Biotek EL406 Microplate Washer Dispenser (Biotek) equipped with a 96-well aspiration manifold. Cells were stained with DAPI (Sigma; 1 μg/ml) and MBP antibody (Abcam, ab7349; 1:100). Plates were imaged on the Operetta High Content Imaging and Analysis system (PerkinElmer) and a set of 4 fields captured from each well resulting in an average of 700 cells being scored per well. Analysis was performed as in High-Content Imaging and Analysis, above. All plates for the primary screen were processed and analyzed simultaneously to minimize variability. Molecules causing more than 20% reduction in nuclear count relative to DMSO control wells were removed from consideration, and hits were called on the basis of largest fold-increase in percentage of MBP+ oligodendrocytes relative to DMSO controls within the same plate.

OPCs = assay: GC/MS-based sterol profiling in OPCs; conditions: for sterol levels / sterol intermediate accumulation in OPCs: 24 h treatment (siRNA 96 h)
EpiSC-derived OPCs [2] = assay: In vitro phenotypic screening of OPCs (MBP+ oligodendrocytes at 72 h); conditions: 72 h
[3] = 2 μM, relative to DMSO controls of the same plate
[4] = 2 μM, hydrochloride monohydrate

Row | Compound | cell viability (% relative to DMS0) (EpiSC-derived OPCs [1]; 2 μM) [%] | % 0ligos (EpiSC-derived OPCs [1]; 2 μM) [%] | fold induction at 2 µM (EpiSC-derived OPCs [1]; [3]) | other results
1 | O=C(C1CCCCC1)N1CC(=O)N2CCc3ccccc3C2C1 (stereo not drawn) [Praziquantel] | 109.81 | 33.24 | 3.72 | 
2 | O=C1Cc2cc(CCN3CCN(c4nsc5ccccc45)CC3)c(Cl)cc2N1 [Ziprasidone HCl] |  |  | 4.68 | % 0ligos (EpiSC-derived OPCs [1]; 2 μM, HCl): 34.10%; cell viability (% relative to DMS0) (EpiSC-derived OPCs [1]; 2 μM, HCl): 147.64%
3 | Clc1ccc(C(Cn2ccnc2)OCc2ccc(Sc3ccccc3)cc2)c(Cl)c1 (stereo not drawn) [Fenticonazole Nitrate] | 103.63 | 35.66 | 4 | 
4 | CCc1nc(N)nc(N)c1-c1ccc(Cl)cc1 [Pyrimethamine] | 91.11 | 43.87 | 4.92 | 
5 | C=C(c1ccc(C(=O)O)cc1)c1cc2c(cc1C)C(C)(C)CCC2(C)C [bexarotene, Bexarotene] |  |  |  | sterol levels / sterol intermediate accumulation in OPCs (OPCs): minimal effects on sterol levels
6 | CC(C)CCC[C@@H](C)[C@H]1CC=C2C3=C(CC[C@@]21C)[C@@]1(C)CCC(O)CC1CC3 (stereo partly drawn) [14-dehydrozymostenol, cholesta-8,14-dien-3-ol] |  |  |  | formation of MBP+ oligodendrocytes from OPCs (EpiSC-derived OPCs [2]): enhanced the formation of MBP+ oligodendrocytes
7 | Cc1cc(NC(=O)Nc2ccc(N(C)C)cc2)c2cc(F)cc(F)c2n1 [SB408124] | 106.19 | 39.63 |  | fold-change in % MBP + oligodendrocytes (EpiSC-derived OPCs [1]; [3]): 4.44
8 | CN1CCC[C@@H]1CCO[C@](C)(c1ccccc1)c1ccc(Cl)cc1 [Clemastine fumarate] |  | 20.49 |  | oligodendrocyte formation in combination with ketoconazole (EpiSC-derived OPCs [2]; ketoconazole 2.5 μM (maximally effective dose)): did not enhance differentiation above levels seen for ketoconazole alone; sterol levels / sterol intermediate accumulation in OPCs (OPCs): induced accumulation of zymostenol and zymosterol and decreased basal sterol levels
9 | O=C1Cc2cc(CCN3CCN(c4nsc5ccccc45)CC3)c(Cl)cc2N1 [Ziprasidone hydrochloride monohydrate] |  |  |  | % 0ligos (EpiSC-derived OPCs [1]; [4]): 32.78%; fold-change in % MBP + oligodendrocytes (EpiSC-derived OPCs [1]; 2 μM, relative to DMSO controls of the same plate, hydrochloride monohydrate): 3.71; cell viability (% relative to DMS0) (EpiSC-derived OPCs [1]; [4]): 116.11%
10 | CCCCOc1ccc(OCCCN2CCOCC2)cc1 [Pramoxine HCl] | 113.08 | 32.98 | 3.89 | 
11 | O=C(c1ccc(OCCN2CCCCC2)cc1)c1c(-c2ccc(O)cc2)sc2cc(O)ccc12 [Raloxifene HCl] |  |  | 4.8 | cell viability (% relative to DMS0) (EpiSC-derived OPCs [1]; 2 μM, HCl): 114.37%; cell viability (% relative to DMS0) (EpiSC-derived OPCs [1]; 2 μM, listed as Raloxifene hydrochloride, HCl): 126.07%
12 | Cc1nnc(C(=O)NC(C)(C)c2nc(C(=O)NCc3ccc(F)cc3)c(O)c(=O)n2C)o1 [Raltegravir (MK-0518), Raltegravir] | 115.85 | 38.02 |  | fold induction at 2 µM (EpiSC-derived OPCs [1]): 4.26
13 | FC(F)(F)c1ccc(/C=C/c2nc(COc3ccc(CCCCn4ccnn4)cc3)co2)cc1 [Mubritinib (TAK 165), Mubritinib] | 142.71 | 31.45 | 3.95 | 
14 | c1ccc(-c2ccc(C(c3ccccc3)n3ccnc3)cc2)cc1 (stereo not drawn) [Bifonazole] | 123.69 | 40.98 | 4.59 | 
15 | CC(C)=CCC[C@@H](C)[C@H]1CC[C@@]2(C)C3=C(CC[C@]12C)[C@@]1(C)CC[C@H](O)C(C)(C)[C@@H]1CC3 [lanosterol, Lanosterol] |  |  |  | formation of MBP+ oligodendrocytes from OPCs (EpiSC-derived OPCs [2]): enhanced formation of MBP+ oligodendrocytes in a dose-responsive fashion
16 | Cl.O[Si](CCCN1CCCCC1)(c1ccc(F)cc1)C1CCCCC1 (stereo not drawn) [Hexahydro-sila-difenidol hydrochloride, p-fluoro analog] |  | 26.76 |  | fold-change in % MBP + oligodendrocytes (EpiSC-derived OPCs [1]; [3]): 3.49
17 | Cl.Clc1ccc(N2CCN(Cc3c[nH]c4ncccc34)CC2)cc1 [L-745,870 hydrochloride] |  | 32.61 |  | 
18 | (±)-Vesamicol | 112.02 | 34.23 |  | fold-change in % MBP + oligodendrocytes (EpiSC-derived OPCs [1]; [3]): 3.87
19 | CC(C)CCC[C@@H](C)[C@H]1CC[C@H]2C3=C(CC[C@]12C)[C@@]1(C)CC[C@H](O)C[C@@H]1CC3 [zymostenol, Zymostenol] |  |  |  | formation of MBP+ oligodendrocytes from OPCs (EpiSC-derived OPCs [2]): enhanced the formation of MBP+ oligodendrocytes
20 | Cc1cc(Nc2cc(CN3CCOCC3)c3nc(C)c(Cc4ccc(Cl)cc4F)n3n2)n[nH]1 [LY2784544] | 87.93 | 28.75 | 3.62 | 
21 | N=C(N)c1ccc(OCCCCCOc2ccc(C(=N)N)cc2)cc1 [Pentamidine isethionate] | 108.75 | 41.29 | 4.42 | 
22 | CC(C)CCC[C@@H](C)[C@H]1CC[C@H]2[C@@H]3CC=C4C[C@@H](O)CC[C@]4(C)[C@H]3CC[C@]12C [cholesterol, Cholesterol] |  |  |  | formation of MBP+ oligodendrocytes from OPCs (EpiSC-derived OPCs [2]): ineffective
23 | N[C@@H](Cc1cc(I)c(Oc2ccc(O)c(I)c2)c(I)c1)C(=O)O [liothyronine, Liothyronine] |  |  |  | sterol levels / sterol intermediate accumulation in OPCs (OPCs): minimal effects on sterol levels
24 | Clc1ccc(CSC(Cn2ccnc2)c2ccc(Cl)cc2Cl)cc1 (stereo not drawn) [Sulconazole Nitrate] | 104.84 | 37.57 | 4.44 | 
25 | lsoconazole nitrate |  | 53.25 |  | fold-change in % MBP + oligodendrocytes (EpiSC-derived OPCs [1]; [3]): 6.70
26 | Varenicline tartrate | 144.02 | 22.86 |  | fold-change in % MBP + oligodendrocytes (EpiSC-derived OPCs [1]; [3]): 4.81
27 | Clc1ccc(CCC(Cn2ccnc2)Sc2c(Cl)cccc2Cl)cc1 (stereo not drawn) [Butoconazole nitrate] | 122.03 | 46.85 | 5.25 | 
28 | C[C@]12CC[C@@H]3c4ccc(O)cc4C[C@@H](CCCCCCCCC[S+]([O-])CCCC(F)(F)C(F)(F)F)[C@H]3[C@@H]1CC[C@@H]2O (stereo partly drawn) [Fulvestrant] | 139.42 | 18.21 | 3.83 | enzyme inhibited in OPCs as indicated by sterol profile (OPCs; 24 h): targeted CYP51
29 | CCN(CC)CCCCCCCCOC(=O)c1cc(OC)c(OC)c(OC)c1.Cl [TMB-8 hydrochloride] | 139.42 | 18.47 |  | fold-change in % MBP + oligodendrocytes (EpiSC-derived OPCs [1]; [3]): 3.89
30 | Clc1ccc(C(Cn2ccnc2)OCc2csc3c(Cl)cccc23)c(Cl)c1 (stereo not drawn) [Sertaconazole nitrate] | 134.49 | 39.38 | 5.23 | 
